How the values were obtained:
[1] = Antioxidant activity assessed as DPPH radical scavenging activity incubated for 30 mins by thermo-microplate photometric analysis; type: functional
[2] = Antioxidant activity assessed as DPPH radical scavenging activity at 40 uM incubated for 30 mins by thermo-microplate photometric analysis relative to control; type: functional
[3] = biological target: Prostaglandin G/H synthase 2 (Homo sapiens) (UniProt P35354); test: Inhibition of COX-2 (unknown origin) using arachidonic acid as substrate at 10 uM preincubated for 10 mins followed by substrate addition and measured after 5 mins by fluorescence based analysis relative to control; conditions: time 15.0 min
Prostaglandin G/H synthase 2 (Homo sapiens), sequence (P35354 whole entry, looked up): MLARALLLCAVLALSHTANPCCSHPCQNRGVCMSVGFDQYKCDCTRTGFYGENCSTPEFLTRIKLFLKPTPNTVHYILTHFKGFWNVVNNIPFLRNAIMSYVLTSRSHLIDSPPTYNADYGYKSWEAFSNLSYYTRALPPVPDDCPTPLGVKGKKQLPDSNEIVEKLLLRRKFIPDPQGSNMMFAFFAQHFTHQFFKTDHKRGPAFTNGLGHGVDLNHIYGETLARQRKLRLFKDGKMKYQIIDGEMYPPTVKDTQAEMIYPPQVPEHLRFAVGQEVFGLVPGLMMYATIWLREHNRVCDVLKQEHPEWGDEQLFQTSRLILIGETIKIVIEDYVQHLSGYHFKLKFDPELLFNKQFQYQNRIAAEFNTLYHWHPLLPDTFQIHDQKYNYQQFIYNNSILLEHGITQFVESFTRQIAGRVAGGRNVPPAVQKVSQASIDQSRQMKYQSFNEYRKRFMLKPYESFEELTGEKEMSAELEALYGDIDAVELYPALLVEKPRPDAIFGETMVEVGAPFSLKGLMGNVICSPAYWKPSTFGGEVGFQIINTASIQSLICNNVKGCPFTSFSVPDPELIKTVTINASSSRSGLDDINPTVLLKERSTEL

[4] = biological target: Prostaglandin G/H synthase 2 (Homo sapiens) (UniProt P35354); test: Inhibition of COX-2 (unknown origin) using arachidonic acid as substrate at 1 uM preincubated for 10 mins followed by substrate addition and measured after 5 mins by fluorescence based analysis relative to control; conditions: time 15.0 min
Liver [5] = test: Antioxidant activity against FeCl2 induced oxidative stress in ICR mouse liver assessed as inhibition of malondialdehyde level at 1000 uM incubated for 60 mins by thermo-microplate photometric analysis relative to control; type: functional; conditions: 1 h
Liver [6] = test: Antioxidant activity against FeCl2 induced oxidative stress in ICR mouse liver assessed as inhibition of malondialdehyde level at 500 uM incubated for 60 mins by thermo-microplate photometric analysis relative to control; type: functional; conditions: 1 h
Liver [7] = test: Antioxidant activity against FeCl2 induced oxidative stress in ICR mouse liver assessed as inhibition of malondialdehyde level at 250 uM incubated for 60 mins by thermo-microplate photometric analysis relative to control; type: functional; conditions: 1 h
Mus musculus [8] = test: Analgesic activity against acetic acid-induced ICR mouse assessed as inhibition of writhing at 20 mg/kg,ip pre-administrated with compound for 15 mins followed by acetic acid addition and measured after 15 mins; type: functional; conditions: 0.5 h, time 30 min
Mus musculus [9] = test: Analgesic activity against acetic acid-induced ICR mouse assessed as number of writhing at 20 mg/kg,ip pre-administrated with compound for 15 mins followed by acetic acid addition and measured after 15 mins; type: functional; conditions: time 30 min, 0.5 h
[10] = AUC (0 to infinity) in ICR mouse at 1 mg/kg,iv administration measured for 0.25 to 8 hrs by LC-MS/MS analysis; type: ADME, organism-based; conditions: in vivo, time 0.25-8 hrs
[11] = AUC (0 to t) in ICR mouse at 10 mg/kg,po administration measured for 0.25 to 8 hrs by LC-MS/MS analysis; type: ADME, organism-based; conditions: in vivo, time 0.25-8 hrs
[12] = Clearance in ICR mouse at 10 mg/kg,po administration measured for 0.25 to 8 hrs by LC-MS/MS analysis; type: ADME, organism-based; conditions: in vivo, time 0.25-8 hrs
[13] = Clearance in ICR mouse at 1 mg/kg,iv administration measured for 0.25 to 8 hrs by LC-MS/MS analysis; type: ADME, organism-based; conditions: in vivo, time 0.25-8 hrs
[14] = Tmax in ICR mouse at 1 mg/kg,iv administration measured for 0.25 to 8 hrs by LC-MS/MS analysis; type: ADME, organism-based; conditions: in vivo, time 0.25-8 hrs
[15] = Half life in ICR mouse at 10 mg/kg,po administration measured for 0.25 to 8 hrs by LC-MS/MS analysis; type: ADME, organism-based; conditions: in vivo, time 0.25-8 hrs
[16] = Apparent volume of distribution in ICR mouse at 1 mg/kg,iv administration measured for 0.25 to 8 hrs by LC-MS/MS analysis; type: ADME, organism-based; conditions: in vivo, time 0.25-8 hrs, read-out: Vz
[17] = AUC (0 to infinity) in ICR mouse at 10 mg/kg,po administration measured for 0.25 to 8 hrs by LC-MS/MS analysis; type: ADME, organism-based; conditions: in vivo, time 0.25-8 hrs
[18] = MRT (0 to infinity) in ICR mouse at 10 mg/kg,po administration measured for 0.25 to 8 hrs by LC-MS/MS analysis; type: ADME, organism-based; conditions: in vivo, time 0.25-8 hrs
[19] = Cmax in ICR mouse at 10 mg/kg,po administration measured for 0.25 to 8 hrs by LC-MS/MS analysis; type: ADME, organism-based; conditions: in vivo, time 0.25-8 hrs
Mus musculus [20] = test: Analgesic activity against acetic acid-induced ICR mouse assessed as inhibition of writhing at 50 mg/kg,ip pre-administrated with compound for 15 mins followed by acetic acid addition and measured after 15 mins; type: functional; conditions: 0.5 h, time 30 min
[21] = AUC (0 to t) in ICR mouse at 1 mg/kg,iv administration measured for 0.25 to 8 hrs by LC-MS/MS analysis; type: ADME, organism-based; conditions: in vivo, time 0.25-8 hrs
[22] = Cmax in ICR mouse at 1 mg/kg,iv administration measured for 0.25 to 8 hrs by LC-MS/MS analysis; type: ADME, organism-based; conditions: in vivo, time 0.25-8 hrs
[23] = Tmax in ICR mouse at 10 mg/kg,po administration measured for 0.25 to 8 hrs by LC-MS/MS analysis; type: ADME, organism-based; conditions: in vivo, time 0.25-8 hrs
[24] = MRT (0 to infinity) in ICR mouse at 1 mg/kg,iv administration measured for 0.25 to 8 hrs by LC-MS/MS analysis; type: ADME, organism-based; conditions: in vivo, time 0.25-8 hrs
Mus musculus [25] = test: Analgesic activity against acetic acid-induced ICR mouse assessed as number of writhing at 50 mg/kg,ip pre-administrated with compound for 15 mins followed by acetic acid addition and measured after 15 mins; type: functional; conditions: time 30 min, 0.5 h
[26] = Half life in ICR mouse at 1 mg/kg,iv administration measured for 0.25 to 8 hrs by LC-MS/MS analysis; type: ADME, organism-based; conditions: in vivo, time 0.25-8 hrs
[27] = Bioavailability in ICR mouse at 1 mg/kg,iv administration measured for 0.25 to 8 hrs by LC-MS/MS analysis; type: ADME, organism-based; conditions: in vivo, time 0.25-8 hrs
[28] = Apparent volume of distribution in ICR mouse at 10 mg/kg,po administration measured for 0.25 to 8 hrs by LC-MS/MS analysis; type: ADME, organism-based; conditions: in vivo, time 0.25-8 hrs

Cc1nn(-c2cccc(Cl)c2)c(O)c1Cc1ccc(C(=O)NO)cc1
IC50 [1]: 23.8 µM | inhibition [2]: 69.2% | inhibition [3]: 90.5% | inhibition [4]: 75%

CC(C)(C)c1nn(-c2ccccc2)c(O)c1Cc1ccc(C(=O)NO)cc1
IC50 [1]: 19.6 µM | inhibition [2]: 72.9% | inhibition [3]: 89% | inhibition [4]: 75%

Cc1nn(-c2ccccc2)c(O)c1Cc1ccc(S(C)(=O)=O)cc1
inhibition [2]: 37.1% | inhibition [3]: 90% | inhibition [4]: 77.5%

CC1=NN(c2ccccc2)C(=O)C1 [EDARAVONE]
IC50 [1]: 32.8 µM | inhibition [2]: 64.3% | inhibition at 1000 µM (Liver [5]): 62.2% | inhibition at 500 µM (Liver [6]): 46.9% | inhibition at 250 µM (Liver [7]): 37.7%

COc1cccc(-n2nc(C)c(Cc3ccc(C(=O)NO)cc3)c2O)c1
inhibition [2]: 43.3% | inhibition [3]: 89% | inhibition [4]: 78%

Cc1[nH]n(-c2ccccc2)c(=O)c1Cc1cccc(C(=O)NO)c1
inhibition [2]: 11% | inhibition [3]: 86% | inhibition [4]: 66.5%

Cc1nn(-c2ccccc2)c(O)c1Cc1ccc(CC(=O)O)cc1
inhibition [2]: 38.5% | inhibition [3]: 86.5% | inhibition [4]: 78%

Cc1nn(-c2ccc(Cl)c(Cl)c2)c(O)c1Cc1ccc(C(=O)NO)cc1
inhibition [2]: 58.1% | inhibition [3]: 80.5% | inhibition [4]: 58.5%

Cc1ccc(-c2cc(C(F)(F)F)nn2-c2ccc(S(N)(=O)=O)cc2)cc1 [CELECOXIB]
inhibition in vivo at 20 mg/kg (Mus musculus [8]): 80.9% | Activity (Mus musculus [9]): 7.1

Cc1nn(-c2cccc(Cl)c2)c(O)c1Cc1ccc(C(=O)O)cc1
inhibition [2]: 35.8% | inhibition [3]: 75% | inhibition [4]: 45.5%

Cc1nn(-c2ccc(Cl)cc2)c(O)c1Cc1ccc(C(=O)NO)cc1
inhibition [2]: 68% | inhibition [3]: 78.5% | inhibition [4]: 64.5%

Cc1nn(-c2ccccc2)c(O)c1Cc1cccc(S(C)(=O)=O)c1
inhibition [2]: 22.8% | inhibition [3]: 84.5% | inhibition [4]: 77.5%

Cc1[nH]n(-c2ccccc2)c(=O)c1Cc1ccc(C(=O)NO)cc1
AUC(0-inf) [10]: 7870 ng·h/mL | AUC(0-t) [11]: 20300 ng·h/mL | CL/F [12]: 5.92 mL/min/kg | IC50 [1]: 19.9 µM | clearance [13]: 2.12 mL/min/kg | Tmax [14]: 4.8 min | inhibition in vivo at 20 mg/kg (Mus musculus [8]): 70.2% | half-life [15]: 4.16 h | Vd [16]: 0.508 L/kg | inhibition [2]: 71.6% | AUC(0-inf) [17]: 28400 ng·h/mL | inhibition at 1000 µM (Liver [5]): 77.3% | inhibition at 500 µM (Liver [6]): 62.3% | MRT inf [18]: 6.32 h | Cmax [19]: 4510 ng/mL | Activity (Mus musculus [9]): 11.1 | inhibition in vivo at 50 mg/kg (Mus musculus [20]): 73.7% | inhibition [3]: 98% | inhibition [4]: 87% | AUC(0-t) [21]: 7680 ng·h/mL | Cmax [22]: 12200 ng/mL | Tmax [23]: 1 h | MRT inf [24]: 1.08 h | Activity (Mus musculus [25]): 9.8 | half-life [26]: 2.74 h | bioavailability [27]: 36% | Vz [28]: 2.13507 L/kg | inhibition at 250 µM (Liver [7]): 51.9%

Cc1nn(-c2ccc(Cl)c(Cl)c2)c(O)c1Cc1ccc(C(=O)O)cc1
inhibition [2]: 38.6% | inhibition [3]: 81% | inhibition [4]: 50.5%

Cc1nn(-c2ccc(Cl)cc2)c(O)c1Cc1ccc(C(=O)O)cc1
inhibition [2]: 36.1% | inhibition [3]: 78.5% | inhibition [4]: 46%

Cc1nn(-c2ccccc2)c(O)c1Cc1ccc(C(=O)O)cc1
inhibition [2]: 37.7% | inhibition [3]: 95% | inhibition [4]: 85.5%

COc1cccc(-n2nc(C)c(Cc3ccc(C(=O)O)cc3)c2O)c1
inhibition [2]: 33.6% | inhibition [3]: 79% | inhibition [4]: 58.5%

Cc1nn(-c2ccccc2)c(O)c1Cc1cccc(C(=O)O)c1
inhibition [2]: 17.4% | inhibition [3]: 94.5% | inhibition [4]: 63.5%

CCc1nn(-c2ccccc2)c(O)c1Cc1ccc(C(=O)NO)cc1
IC50 [1]: 22.1 µM | inhibition [2]: 67.7% | inhibition [3]: 82.5% | inhibition [4]: 70.5%

O=C(NO)c1ccc(Cc2c(C3CC3)[nH]n(-c3ccccc3)c2=O)cc1
inhibition [2]: 64.7% | inhibition [3]: 72.5% | inhibition [4]: 55%

CCc1nn(-c2ccccc2)c(O)c1Cc1ccc(C(=O)O)cc1
inhibition [2]: 42.7% | inhibition [3]: 83.5% | inhibition [4]: 63.5%

O=C(O)c1ccc(Cc2c(C3CC3)nn(-c3ccccc3)c2O)cc1
inhibition [2]: 37.3% | inhibition [3]: 82% | inhibition [4]: 57.5%

CC(C)(C)c1nn(-c2ccccc2)c(O)c1Cc1ccc(C(=O)O)cc1
inhibition [2]: 49.9% | inhibition [3]: 73% | inhibition [4]: 54.5%
